In the experiment the target is T1, AM2 receptor (1321N1 cells transfected with CALCRL+RAMP3) (Homo sapiens, UniProt O60896+Q16602).
T1 construct: host or cells: 1321N1 cells
T1 sequence (Q16602 23-461): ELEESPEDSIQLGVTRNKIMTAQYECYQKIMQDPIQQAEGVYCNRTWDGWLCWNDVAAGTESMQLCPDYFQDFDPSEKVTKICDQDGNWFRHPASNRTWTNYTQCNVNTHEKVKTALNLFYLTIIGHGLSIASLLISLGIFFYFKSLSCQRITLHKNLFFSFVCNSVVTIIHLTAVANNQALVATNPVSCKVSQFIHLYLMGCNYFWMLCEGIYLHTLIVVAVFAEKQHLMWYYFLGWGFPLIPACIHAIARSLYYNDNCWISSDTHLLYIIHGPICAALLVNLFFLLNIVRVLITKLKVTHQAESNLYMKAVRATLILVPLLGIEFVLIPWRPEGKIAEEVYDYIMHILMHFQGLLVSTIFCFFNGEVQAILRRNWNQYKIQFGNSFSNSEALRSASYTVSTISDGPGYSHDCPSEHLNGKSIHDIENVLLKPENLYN
T1 sequence (O60896 24-148): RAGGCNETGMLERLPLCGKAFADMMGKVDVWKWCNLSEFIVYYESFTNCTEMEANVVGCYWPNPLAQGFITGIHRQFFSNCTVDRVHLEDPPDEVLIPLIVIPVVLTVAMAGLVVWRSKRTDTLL
As to the kind of experiment: AM2 receptor inhibition, LANCE cAMP agonist-antagonist competition assay. Format: cell-based. The conditions noted are these: inhibition of AM induced cAMP activation, read-out: AM2 D2 protocol: pIC50 (converted). The method, boiled down: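 cAMP was quantified by LANCE TR-FRET after an EC50 challenge with adrenomedullin (15 min, room temperature) in CALCRL+RAMP3-transfected 1321N1 cells (2500/well) that had first been exposed to compound for 30 min. Buffer was pH 7.4 HBSS with HEPES and BSA. Forskolin defined 100% stimulation and vehicle 0%.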
In general terms: TR-FRET usually uses a lanthanide donor and a delayed reading to cut background.
For `CCC1(C(=O)N(CC(=O)Nc2ccc3c(c2)C[C@@]2(C3)C(=O)Nc3ncccc32)Cc2ccccc2CNC)CCN(C(=O)[C@@H](C)NC)CC1` [Example 77, 4-Ethyl-N-(2-((methylamino)methyl)benzyl)-1-((R)-2-(methylamino)propanoyl)-N-(2-oxo-2-(((R)-2′-oxo-1,1′,2′,3-tetrahydrospiro[indene-2,3′-pyrrolo[2,3-b]pyridin]-5-yl)amino)ethyl)piperidine-4-carboxamide], the IC50 is 24 nM. To `CCC1(C(=O)N(CC(=O)Nc2ccc3c(c2)C[C@@]2(C3)C(=O)Nc3ncccc32)Cc2ccccc2CNC)CCN(C(=O)c2cccc(C(F)(F)F)n2)CC1` [Example 78, (R)-4-Ethyl-N-(2-((methylamino)methyl)benzyl)-N-(2-oxo-2-((2′-oxo-1,1′,2′,3-tetrahydrospiro[indene-2,3′-pyrrolo[2,3-b]pyridin]-5-yl)amino)ethyl)-1-(6-(trifluoromethyl)picolinoyl)piperidine-4-carboxamide] belongs 112 nM; to `CCC1(C(=O)N(CC(=O)Nc2ccc3c(c2)C[C@@]2(C3)C(=O)Nc3ncccc32)Cc2ccccc2CNC)CCN(C(=O)[C@@H](N)c2ccccc2)CC1` [Example 79, 1-((S)-2-Amino-2-phenylacetyl)-4-ethyl-N-(2-((methylamino)methyl)benzyl)-N-(2-oxo-2-(((R)-2′-oxo-1,1′,2′,3-tetrahydrospiro[indene-2,3′-pyrrolo[2,3-b]pyridin]-5-yl)amino)ethyl)piperidine-4-carboxamide], 7.41 nM.

On to `CCC1(C(=O)N(CC(=O)Nc2ccc3c(c2)C[C@@]2(C3)C(=O)Nc3ncccc32)Cc2ccccc2CNC)CCN(C(=O)[C@H](N)C(C)C)CC1` [Example 80, 1-((R)-2-Amino-3-methylbutanoyl)-4-ethyl-N-(2-((methylamino)methyl)benzyl)-N-(2-oxo-2-(((R)-2′-oxo-1,1′,2′,3-tetrahydrospiro[indene-2,3′-pyrrolo[2,3-b]pyridin]-5-yl)amino)ethyl)piperidine-4-carboxamide], for which the IC50 is 57.5 nM.

On to `CCC1(C(=O)N(CC(=O)Nc2ccc3c(c2)C[C@@]2(C3)C(=O)Nc3ncccc32)Cc2ccccc2CNC)CCN(C(=O)[C@H](N)c2ccccc2)CC1` [Example 81, 1-((R)-2-Amino-2-phenylacetyl)-4-ethyl-N-(2-((methylamino)methyl)benzyl)-N-(2-oxo-2-(((R)-2′-oxo-1,1′,2′,3-tetrahydrospiro[indene-2,3′-pyrrolo[2,3-b]pyridin]-5-yl)amino)ethyl)piperidine-4-carboxamide], for which the IC50 was 2.34 nM. The same measure for `CCC1(C(=O)N(CC(=O)Nc2ccc3c(c2)C[C@@]2(C3)C(=O)Nc3ncccc32)Cc2ccccc2CNC)CCN(C(=O)[C@@H](N)C(C)C)CC1` [Example 82, 1-((S)-2-Amino-3-methylbutanoyl)-4-ethyl-N-(2-((methylamino)methyl)benzyl)-N-(2-oxo-2-(((R)-2′-oxo-1,1′,2′,3-tetrahydrospiro[indene-2,3′-pyrrolo[2,3-b]pyridin]-5-yl)amino)ethyl)piperidine-4-carboxamide]: 8.32 nM; for `CCC1(C(=O)N(CC(=O)Nc2ccc3c(c2)C[C@@]2(C3)C(=O)Nc3ncccc32)Cc2ccccc2CNC)CCN(C(=O)[C@H]2COCCN2)CC1` [Example 83, 4-Ethyl-N-(2-((methylamino)methyl)benzyl)-1-((R)-morpholine-3-carbonyl)-N-(2-oxo-2-(((R)-2′-oxo-1,1′,2′,3-tetrahydrospiro[indene-2,3′-pyrrolo[2,3-b]pyridin]-5-yl)amino)ethyl)piperidine-4-carboxamide]: 56.2 nM. For `CCC1(C(=O)N(CC(=O)Nc2ccc3c(c2)C[C@@]2(C3)C(=O)Nc3ncccc32)Cc2ccccc2CNC)CCN(C(=O)c2ccn[nH]2)CC1` [Example 84, (R)-4-Ethyl-N-(2-((methylamino)methyl)benzyl)-N-(2-oxo-2-((2′-oxo-1,1′,2′,3-tetrahydrospiro[indene-2,3′-pyrrolo[2,3-b]pyridin]-5-yl)amino)ethyl)-1-(1H-pyrazole-5-carbonyl)piperidine-4-carboxamide], the IC50 is 3.55 nM. In the case of `CCC1(C(=O)N(CC(=O)Nc2ccc3c(c2)C[C@@]2(C3)C(=O)Nc3ncccc32)Cc2ccccc2CNC)CCN(C(=O)c2cn[nH]c2)CC1` [Example 85, (R)-4-Ethyl-N-(2-((methylamino)methyl)benzyl)-N-(2-oxo-2-((2′-oxo-1,1′,2′,3-tetrahydrospiro[indene-2,3′-pyrrolo[2,3-b]pyridin]-5-yl)amino)ethyl)-1-(1H-pyrazole-4-carbonyl)piperidine-4-carboxamide], the IC50 is 3.8 nM.

For the compound `CCC1(C(=O)N(CC(=O)Nc2ccc3c(c2)C[C@@]2(C3)C(=O)Nc3ncccc32)Cc2ccccc2CNC)CCN(C(=O)c2cncs2)CC1` [Example 86, (R)-4-Ethyl-N-(2-((methylamino)methyl)benzyl)-N-(2-oxo-2-((2′-oxo-1,1′,2′,3-tetrahydrospiro[indene-2,3′-pyrrolo[2,3-b]pyridin]-5-yl)amino)ethyl)-1-(thiazole-5-carbonyl)piperidine-4-carboxamide], the IC50 is 1.26 nM. As to `CCC1(C(=O)N(CC(=O)Nc2ccc3c(c2)C[C@@]2(C3)C(=O)Nc3ncccc32)Cc2ccccc2CNC)CCN(C(=O)C23CC(C2)C3)CC1` [Example 87], the IC50 was 2.19 nM. The same measure for `CCC1(C(=O)N(CC(=O)Nc2ccc3c(c2)C[C@@]2(C3)C(=O)Nc3ncccc32)Cc2ccccc2CNC)CCN(C(=O)C(C)(C)F)CC1` [Example 88, (R)-4-Ethyl-1-(2-fluoro-2-methylpropanoyl)-N-(2-((methylamino)methyl)benzyl)-N-(2-oxo-2-((2′-oxo-1,1′,2′,3-tetrahydrospiro[indene-2,3′-pyrrolo[2,3-b]pyridin]-5-yl)amino)ethyl)piperidine-4-carboxamide]: 2.45 nM; for `CCC1(C(=O)N(CC(=O)Nc2ccc3c(c2)C[C@@]2(C3)C(=O)Nc3ncccc32)Cc2ccccc2CNC)CCN(C(=O)C2CCC2)CC1` [Example 89, (R)-1-(Cyclobutanecarbonyl)-4-ethyl-N-(2-((methylamino)methyl)benzyl)-N-(2-oxo-2-((2′-oxo-1,1′,2′,3-tetrahydrospiro[indene-2,3′-pyrrolo[2,3-b]pyridin]-5-yl)amino)ethyl)piperidine-4-carboxamide]: 5.5 nM. `CCC1(C(=O)N(CC(=O)Nc2ccc3c(c2)C[C@@]2(C3)C(=O)Nc3ncccc32)Cc2ccccc2CNC)CCN(C(=O)CN2CCOCC2)CC1` [Example 90, (R)-4-Ethyl-N-(2-((methylamino)methyl)benzyl)-1-(2-morpholinoacetyl)-N-(2-oxo-2-((2′-oxo-1,1′,2′,3-tetrahydrospiro[indene-2,3′-pyrrolo[2,3-b]pyridin]-5-yl)amino)ethyl)piperidine-4-carboxamide]: the IC50 is 22.9 nM. As for `CCC1(C(=O)N(CC(=O)Nc2ccc3c(c2)C[C@@]2(C3)C(=O)Nc3ncccc32)Cc2ccccc2CNC)CCN(C(=O)c2cc(C(C)(C)C)n[nH]2)CC1` [Example 91, (R)-1-(3-(tert-Butyl)-1H-pyrazole-5-carbonyl)-4-ethyl-N-(2-((methylamino)methyl)benzyl)-N-(2-oxo-2-((2′-oxo-1,1′,2′,3-tetrahydrospiro[indene-2,3′-pyrrolo[2,3-b]pyridin]-5-yl)amino)ethyl)piperidine-4-carboxamide], the IC50 is 34.7 nM.

The values above are taken from patent publication US20230036854A1, “HETEROCYCLIC SPIRO-COMPOUNDS AS AM2 RECEPTOR INHIBITORS” (THE UNIVERSITY OF SHEFFIELD, priority 2018, published 2023).
